# Laboratory results: patent US20060069132A1, “Azolecarboxamide herbicides” (priority 2004, published 2006)
# Legend:
# barnyardgrass = assay: Test B pre-/postemergence herbicide test; format: in vivo, Echinochloa crus-galli; conditions: for Barnyardgrass plant response rating: postemergence
# How it was run: (§1)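 Response was scored visually 13 to 15 days after treatment against untreated greenhouse controls, 0 meaning no effect and 100 complete control. Formulations (solvent mixture plus surfactant) went onto soil after planting, onto foliage of 1- to 4-leaf plants, and onto 2-leaf plants in a flooded paddy set including rice and barnyardgrass.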
# Surinam grass = assay: Test B pre-/postemergence herbicide test; format: in vivo, Urochloa decumbens
# How it was run: (§2)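 Visual rating, 0 (no effect) to 100 (complete control), versus untreated controls after 13–15 d in greenhouse. Pre- and postemergence applications (postemergence plants 2–18 cm, 1–4 leaves); flooded paddy arm at 2-leaf stage. Compounds in non-phytotoxic solvent plus surfactant.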
# cocklebur = assay: Test B pre-/postemergence herbicide test; format: in vivo, Xanthium strumarium; conditions: for Cocklebur plant response rating: postemergence
# How it was run: as §1
# corn = assay: Test B pre-/postemergence herbicide test; format: in vivo, Zea mays; conditions: for Corn plant response rating: postemergence
# How it was run: as §2
# large crabgrass = assay: Test B pre-/postemergence herbicide test; format: in vivo, Digitaria sanguinalis; conditions: for Crabgrass, Large plant response rating: postemergence
# How it was run: as §2
# giant foxtail = assay: Test B pre-/postemergence herbicide test; format: in vivo, Setaria faberi; conditions: for Foxtail, Giant plant response rating: postemergence
# How it was run: as §2
# morningglory = assay: Test B pre-/postemergence herbicide test; format: in vivo, Ipomoea coccinea
# How it was run: as §1
# pigweed = assay: Test B pre-/postemergence herbicide test; format: in vivo, Amaranthus retroflexus
# How it was run: as §2
# velvetleaf = assay: Test B pre-/postemergence herbicide test; format: in vivo, Abutilon theophrasti
# How it was run: as §2
# blackgrass = assay: Test B postemergence herbicide test; format: in vivo, Alopecurus myosuroides; conditions: postemergence
# How it was run: (§3)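 Visual control ratings, 0–100 versus untreated controls, taken after 13 to 15 days in the greenhouse. Blackgrass received a postemergence spray at the 1- to 4-leaf stage (2–18 cm); ducksalad, umbrella sedge and barnyardgrass were flooded-paddy treated at 2 leaves.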
# wheat = assay: Test B postemergence herbicide test; format: in vivo, Triticum aestivum; parameters: key to Wheat plant response rating: 0 = no effect, 100 = complete control
# How it was run: (§4)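 Treated at 2-leaf (paddy) or 1–4-leaf, 2–18 cm (postemergence); greenhouse 13–15 d; visual score vs control, 0 none to 100 complete control; dash = not tested.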
# wild oat = assay: Test B postemergence herbicide test; format: in vivo, Avena fatua
# How it was run: as §4
# rice = assay: Test B flooded paddy test; format: in vivo, Oryza sativa; conditions: 1000 g ai/ha, scale 0 to 100 (0 no effect, 100 complete control)
# How it was run: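 Read-out: visual comparison with controls, scored 0 to 100, where 100 means complete control and 0 no effect. Formulated chemicals were applied postemergence to plants 2–18 cm tall (1- to 4-leaf), or to flooded-paddy plants at the 2-leaf stage, then held 13 to 15 days under glass.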
# [1] = test system: small flower umbrella sedge; assay: Test B flooded paddy test; format: in vivo, Cyperus difformis; conditions: 1000 g ai/ha, scale 0 to 100 (0 no effect, 100 complete control)
# How it was run: as §3
# ducksalad = assay: Test B flooded paddy test; format: in vivo, Heteranthera limosa; conditions: 1000 g ai/ha, scale 0 to 100 (0 no effect, 100 complete control)
# How it was run: as §3
# [2] = 125 g ai/ha, 0 is no effect, 100 is complete control, preemergence
# [3] = 125 g ai/ha, visual rating, scale 0 (no effect) to 100 (complete control)
# [4] = 500 g ai/ha, scale 0 to 100, 0 is no effect, 100 is complete control
# [5] = 125 g ai/ha, visual rating, scale 0 (no effect) to 100 (complete control), postemergence
# [6] = Postemergence, 500 g ai/ha, scale 0 (no effect) to 100 (complete control)
# [7] = 125 g ai/ha, 0 = no effect, 100 = complete control, preemergence
# [8] = 500 g ai/ha, visual rating, 0 = no effect, 100 = complete control, preemergence
# [9] = postemergence, 500 g ai/ha, scale 0 to 100, 0 is no effect, 100 is complete control
smiles,measurement,setting,value
CCc1nn(C(C)C)nc1C(=O)Nc1cccc(C(=O)N(C)CC)c1 [Compound 386],"Plant response rating (0 to 100 scale), Barnyardgrass",barnyardgrass; [2],90
same,Barnyardgrass plant response rating,barnyardgrass; [3],0
same,Barnyardgrass plant response rating,barnyardgrass; [4],10
same,"Plant response rating (0 to 100 scale), Surinam Grass",Surinam grass; [2],80
same,Surinam Grass plant response rating,Surinam grass; [5],10
same,Surinam Grass plant response rating,Surinam grass; [6],10
same,"Plant response rating (0 to 100 scale), Cocklebur",cocklebur; [2],20
same,Cocklebur plant response rating,cocklebur; [3],40
same,Cocklebur plant response rating,cocklebur; [4],50
same,"Plant response rating (0 to 100 scale), Corn",corn; [2],40
same,Corn plant response rating,corn; [3],0
same,Corn plant response rating,corn; [4],10
same,"Plant response rating (0 to 100 scale), Crabgrass, Large",large crabgrass; [2],100
same,"Crabgrass, Large plant response rating",large crabgrass; [3],10
same,"Crabgrass, Large plant response rating",large crabgrass; [4],20
same,"Plant response rating (0 to 100 scale), Foxtail, Giant",giant foxtail; [2],90
same,"Foxtail, Giant plant response rating",giant foxtail; [3],20
same,"Foxtail, Giant plant response rating",giant foxtail; [4],20
same,"Plant response rating (0 to 100 scale), Morningglory",morningglory; [2],50
same,Morningglory plant response rating,morningglory; [5],20
same,Morningglory plant response rating,morningglory; [6],20
same,"Plant response rating (0 to 100 scale), Pigweed",pigweed; [2],100
same,Pigweed plant response rating,pigweed; [5],50
same,Pigweed plant response rating,pigweed; [6],60
same,"Plant response rating (0 to 100 scale), Velvetleaf",velvetleaf; [2],60
same,Velvetleaf plant response rating,velvetleaf; [5],40
same,Velvetleaf plant response rating,velvetleaf; [6],50
same,Blackgrass plant response rating,blackgrass; [3],0
same,Blackgrass plant response rating,blackgrass; [4],40
same,Wheat plant response rating,wheat; [5],0
same,Wheat plant response rating,"wheat; 500 g ai/ha, scale 0 to 100, 0 no effect, 100 complete control, preemergence",100
same,Wheat plant response rating,wheat; [6],0
same,"Oat, Wild plant response rating",wild oat; [5],0
same,"Oat, Wild plant response rating",wild oat; [6],0
same,Rice plant response rating,rice,80
same,"Sedge, Umbrella plant response rating",[1],80
same,Ducksalad plant response rating,ducksalad,90
CCN1N=C(C(C)(C)C)CC1C(=O)Nc1cc(C(=O)N2CC=CC2)ccc1F (racemic) [Compound 310],Barnyardgrass plant response rating (0 to 100 scale),barnyardgrass; [7],60
same,Barnyardgrass plant response rating,barnyardgrass; [3],0
same,"Plant response rating, Barnyardgrass",barnyardgrass; [8],90
same,Barnyardgrass plant response rating,barnyardgrass; [4],20
same,Surinam Grass plant response rating (0 to 100 scale),Surinam grass; [7],30
same,Surinam Grass plant response rating,Surinam grass; [5],10
same,"Plant response rating, Surinam Grass",Surinam grass; [8],70
same,Surinam Grass plant response rating,Surinam grass; [9],20
same,Cocklebur plant response rating (0 to 100 scale),cocklebur; [7],10
same,Cocklebur plant response rating,cocklebur; [3],0
same,"Plant response rating, Cocklebur",cocklebur; [8],50
same,Cocklebur plant response rating,cocklebur; [4],20
same,Corn plant response rating (0 to 100 scale),corn; [7],40
same,Corn plant response rating,corn; [3],0
same,"Plant response rating, Corn",corn; [8],70
same,Corn plant response rating,corn; [4],20
same,"Crabgrass, Large plant response rating (0 to 100 scale)",large crabgrass; [7],90
same,"Crabgrass, Large plant response rating",large crabgrass; [3],10
same,"Plant response rating, Crabgrass, Large",large crabgrass; [8],100
same,"Crabgrass, Large plant response rating",large crabgrass; [4],30
same,"Foxtail, Giant plant response rating (0 to 100 scale)",giant foxtail; [7],50
same,"Foxtail, Giant plant response rating",giant foxtail; [3],10
same,"Plant response rating, Foxtail, Giant",giant foxtail; [8],100
same,"Foxtail, Giant plant response rating",giant foxtail; [4],40
same,Morningglory plant response rating (0 to 100 scale),morningglory; [7],0
same,Morningglory plant response rating,morningglory; [5],0
same,"Plant response rating, Morningglory",morningglory; [8],10
same,Morningglory plant response rating,morningglory; [9],50
same,Pigweed plant response rating (0 to 100 scale),pigweed; [7],80
same,Pigweed plant response rating,pigweed; [5],50
same,"Plant response rating, Pigweed",pigweed; [8],100
same,Pigweed plant response rating,pigweed; [9],70
same,Velvetleaf plant response rating,velvetleaf; [5],20
same,"Plant response rating, Velvetleaf",velvetleaf; [8],100
same,Velvetleaf plant response rating,velvetleaf; [9],50
same,Blackgrass plant response rating,blackgrass; [3],10
same,Blackgrass plant response rating,blackgrass; [4],30
same,Wheat plant response rating,wheat; [5],10
same,Wheat plant response rating,wheat; [9],20
same,"Oat, Wild plant response rating",wild oat; [5],30
same,"Oat, Wild plant response rating",wild oat; [9],40
same,Rice plant response rating,rice,80
same,"Sedge, Umbrella plant response rating",[1],80
same,Ducksalad plant response rating,ducksalad,90
